Source: patent publication US5942494A, “Stimulation of gene expression and synthesis of heat shock protein 72/73 (HSP 70)” (The Trustees of Columbia University in the City of New York, priority 1996, dated 1999)
Square brackets hold non-standard residues; d marks the D form. Peptide text beside a SMILES is read from it. Nle = CCCC[C@H](N)C(=O)O

What was measured:
[1] = system: HSF1; experiment: EGS cross-linking and Western blot of HSF1 oligomeric forms in HepG2 cells; format: cell-based, human; conditions: ALLN 40 μg/ml, 2 hours at 37° C., EGS cross-linking
Description: FIGS. 6A-6B: ALLN affects the trimerization of HSF. HepG2 cells were treated with serum-free MEM containing 1.5% BSA for 2 hours at 37° C. without any additions (lane1), at 37 ° C. but containing 40μg/ml of ALLN in the medium (lane2), at 37° C. in a medium containing both ALLN and 50 μg/ml of cycloheximide (lane3) , at 42° C. alone (lane4), or at 42° C. plus cycloheximide in the medium (lane5). Cell lysates were prepared as described under Experimental Details. The lysates were either directly run on the SDS-PAGE (A) to show the steady-state protein levels of HSF1 or subjected to cross-linking with ethylene glycol bis sucrinimidylsuccinate (EGS) before running the gel (B) to show the oligomeric forms of HSF1. The proteins were then transfered to a nitrocellulose membrane and immunoblotted with anti-human HSF1 antibody. Arrows on the right side indicates the monomeric, dimeric or trimeric forms of HSF1, respectively. This experiment was repeated three times with identical results.
For measurement of the steady-state HSF1 protein levels, whole cell extracts were prepared by lysing the cells directly with 2×SDS-sample buffer (Maniatis, et al., 1982). For chemical cross-linking experiments, whole-cell extracts were prepared as described (Mosser, et al., 1988). Briefly, the cold PBS-washed cell pellets were quickly and repeatedly frozen in liquid nitrogen. […]

[2] = system: 3-hydroxy-3-methylglutaryl-coenzyme A (HMG-CoA) reductase; conditions: Inoue, et al., 1991; cited from earlier work

## CCCC[C@@H](C=O)NC(=O)[C@H](CC(C)C)NC(=O)[C@H](CC(C)C)NC(C)=O [ALLN, N-acetyl-leucyl-leucyl-norleucinal] (Ac-Leu-Leu-[Nle]-aldehyde)
[1]
  Oligomeric form of HSF1 (270-kDa cross-linked product): trimer
[2]
  Protection of HMG-CoA reductase: protected
